# Several values for one entry are separate records, joined by “and”; a condition that tells them apart may be missing. Equal entries are not always repeated.
# Assays:
# [1] = target: T1, Drosophila OR47a (Drosophila melanogaster, UniProt P81921); experiment: Calcium ion fluorescence (GCaMP6) assay, OR47a stable HEK293 cell line; format: cell-based; details: for activation at 1 µM / activation at 10 µM / activation at 100 µM: HEK293, read-out: OR47a Average response (VUAA1-normalized); for OR47a response (VUAA1-normalized) at 1 μM / OR47a response (VUAA1-normalized) at 10 μM / OR47a response (VUAA1-normalized) at 100 μM / Average response: OR47a cell line; for OR47a response (VUAA1-normalized) at 1 μM: VOC concentration 1 μM; for OR47a response (VUAA1-normalized) at 10 μM: VOC concentration 10 μM; for OR47a response (VUAA1-normalized) at 100 μM: VOC concentration 100 μM; for Average response: mean of biological replicates; for DF norm AVERAGE OR47a: threshold 0.05, below shown as 0
# T1 construct: expressed in transfected cells
# T1 sequence (P81921 1-385): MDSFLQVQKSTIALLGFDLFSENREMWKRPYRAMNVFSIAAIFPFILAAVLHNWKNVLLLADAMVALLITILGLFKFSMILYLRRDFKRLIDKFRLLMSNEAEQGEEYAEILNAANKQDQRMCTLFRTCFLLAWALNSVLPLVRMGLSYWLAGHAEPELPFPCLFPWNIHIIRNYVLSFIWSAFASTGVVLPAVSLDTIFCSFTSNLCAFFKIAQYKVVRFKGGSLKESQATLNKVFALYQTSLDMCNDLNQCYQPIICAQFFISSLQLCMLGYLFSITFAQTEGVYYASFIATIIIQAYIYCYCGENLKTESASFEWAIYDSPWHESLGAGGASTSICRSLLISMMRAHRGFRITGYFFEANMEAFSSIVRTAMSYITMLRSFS
# T1 sequence (Q9VNB5 1-486 partner): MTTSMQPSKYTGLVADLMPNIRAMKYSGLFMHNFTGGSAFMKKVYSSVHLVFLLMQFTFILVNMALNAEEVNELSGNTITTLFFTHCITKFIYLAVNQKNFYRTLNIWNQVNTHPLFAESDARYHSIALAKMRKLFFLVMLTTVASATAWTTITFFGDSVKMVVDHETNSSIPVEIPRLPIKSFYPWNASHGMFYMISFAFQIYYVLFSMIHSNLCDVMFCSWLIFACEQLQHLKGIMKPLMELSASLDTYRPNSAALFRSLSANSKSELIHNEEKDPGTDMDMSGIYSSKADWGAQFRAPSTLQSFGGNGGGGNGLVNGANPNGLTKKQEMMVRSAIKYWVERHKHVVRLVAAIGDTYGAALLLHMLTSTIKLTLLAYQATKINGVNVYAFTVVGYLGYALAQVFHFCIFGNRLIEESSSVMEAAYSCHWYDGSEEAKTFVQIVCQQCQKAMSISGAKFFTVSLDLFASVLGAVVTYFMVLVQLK
# Outline: (§1)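 Responses are VUAA1-normalized ΔF: each VOC-evoked calcium signal, (FMAX−F0)/F0 over 30 s after injection, divided by the same line's mean 50 µM VUAA1 response. Cells were doxycycline-induced HEK293 with GCaMP6 and the cognate Drosophila OR, in HEPES buffer pH 7.3; ligands tested 0.01–100 μM.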
# [2] = target: T2, Drosophila OR13a (Drosophila melanogaster, UniProt Q9VXL0); experiment: Calcium ion fluorescence (GCaMP6) assay, OR13a stable HEK293 cell line; format: cell-based; details: for activation at 1 µM: HEK293, read-out: OR13a Average response (VUAA1-normalized), 1 μM VOC; for activation at 1 µM / activation at 10 µM / activation at 100 µM: 50 μM VUAA1 = 1, responses not exceeding 0.05 considered 0; for activation at 10 µM: HEK293, read-out: OR13a Average response (VUAA1-normalized), 10 μM VOC; for activation at 100 µM: HEK293, read-out: OR13a Average response (VUAA1-normalized), 100 μM VOC; for OR13a response (VUAA1-normalized) at 1 μM / OR13a response (VUAA1-normalized) at 10 μM / OR13a response (VUAA1-normalized) at 100 μM: OR13a cell line; for OR13a response (VUAA1-normalized) at 1 μM: VOC concentration 1 μM; for OR13a response (VUAA1-normalized) at 10 μM: VOC concentration 10 μM; for OR13a response (VUAA1-normalized) at 100 μM: VOC concentration 100 μM; for DF norm AVERAGE OR13a: threshold 0.05, below shown as 0
# T2 construct: expressed in transfected cells
# T2 sequence (Q9VXL0 1-418): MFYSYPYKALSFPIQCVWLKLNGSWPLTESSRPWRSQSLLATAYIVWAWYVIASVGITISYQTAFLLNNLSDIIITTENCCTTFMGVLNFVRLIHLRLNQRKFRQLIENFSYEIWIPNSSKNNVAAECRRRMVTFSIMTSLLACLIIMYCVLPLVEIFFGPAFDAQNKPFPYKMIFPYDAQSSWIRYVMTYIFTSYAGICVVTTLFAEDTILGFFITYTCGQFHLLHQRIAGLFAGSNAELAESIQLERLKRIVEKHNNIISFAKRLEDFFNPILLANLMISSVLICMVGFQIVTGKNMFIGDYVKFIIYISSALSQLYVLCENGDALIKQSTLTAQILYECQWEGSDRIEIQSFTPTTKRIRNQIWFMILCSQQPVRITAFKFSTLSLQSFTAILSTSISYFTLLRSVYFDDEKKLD
# T2 sequence (Q9VNB5 1-486 partner): T1 sequence (Q9VNB5 1-486 partner)
# Outline: as §1
# [3] = ligand concentration 1 (unit not given)
# [4] = ligand concentration 10 (unit not given)
# [5] = ligand concentration 100 (unit not given)
smiles,measurement,setting,value
CCCCCOC(C)=O [pentyl acetate],EC50,"[1]; AVERAGE EC50, the 14th table, corresponds to average LOG EC50, given with 95% confidence interval",2220 nM
same,EC50,"[1]; EC50, AVERAGE of replicate fits, the 14th table, arithmetic average, N 5",2410 nM
same,EC50,"[1]; EC50, OR47a cell line, fitted Hill equation, Hill coefficient constrained to 1, maximal response max 1",2220 nM
same,EC50,"[1]; EC50, fitted average curve, the 14th table, fit to the average curve, n 0.854956",2560 nM
same,EC50,"[1]; EC50, fitted parameter per biological replicate, the 14th table, individual replicate fits",1810 nM and 2840 nM and 3360 nM and 2980 nM and 1050 nM
same,activation at 1 µM,[1],41%
same,activation at 10 µM,[1],85%
same,activation at 100 µM,[1],76%
same,Emax,"[1]; HEK293, read-out: VUAA1 normalized MAX response",96%
same,EC50,"[1]; LOG EC50, AVERAGE of replicate fits, the 14th table, N 5",2220 nM
same,EC50,"[1]; LOG EC50, fitted parameter per biological replicate, the 14th table, OR47a D-R pentyl acetate, individual replicate fits, MIN 0, n 1",1810 nM and 2840 nM and 3360 nM and 2980 nM and 1050 nM
same,OR47a response (VUAA1-normalized) at 1 μM,[1],0.41
same,OR47a response (VUAA1-normalized) at 10 μM,[1],0.85
same,OR47a response (VUAA1-normalized) at 100 μM,[1],0.76
same,Average response,[1]; odorant cc. 1 µM,0.41
same,Average response,[1]; odorant cc. 10 µM,0.85
same,Average response,[1]; odorant cc. 100 µM,0.76
same,DF norm AVERAGE OR47a,[1]; [3],0.4101
same,DF norm AVERAGE OR47a,[1]; [4],0.8532
same,DF norm AVERAGE OR47a,[1]; [5],0.7595
same,"dose-response, response per biological replicate","[1]; the 14th table, VOC concentration 0.15",0 (2×) and 0.08996
same,"dose-response, AVERAGE response","[1]; the 14th table, VOC concentration 0.15, N 3",0.02999
same,"dose-response, response per biological replicate","[1]; the 14th table, VOC concentration 0.3",0 (2×) and 0.06871 and 0.1596
same,"dose-response, AVERAGE response","[1]; the 14th table, VOC concentration 0.3, N 4",0.05709
same,"dose-response, response per biological replicate","[1]; the 14th table, VOC concentration 0.6",0.1609 and 0.1169 and 0.06805 and 0.08558 and 0.2252
same,"dose-response, AVERAGE response","[1]; the 14th table, VOC concentration 0.6, N 5",0.1313
same,"dose-response, response per biological replicate","[1]; the 14th table, VOC concentration 1.25",0.1915 and 0.1656 and 0.1715 and 0.5641
same,"dose-response, AVERAGE response","[1]; the 14th table, VOC concentration 1.25, N 4",0.2732
same,"dose-response, response per biological replicate","[1]; the 14th table, VOC concentration 2.5",0.3991 and 0.4483 and 0.3729 and 0.3818 and 0.7224
same,"dose-response, AVERAGE response","[1]; the 14th table, VOC concentration 2.5, N 5",0.4649
same,"dose-response, response per biological replicate","[1]; the 14th table, VOC concentration 5",0.9001 and 0.6438 and 0.6113 and 0.6294 and 0.9303
same,"dose-response, AVERAGE response","[1]; the 14th table, VOC concentration 5, N 5",0.743
same,"dose-response, response per biological replicate","[1]; the 14th table, VOC concentration 10",0.8372 and 0.7794 and 0.895 and 0.7979 and 1.027
same,"dose-response, AVERAGE response","[1]; the 14th table, VOC concentration 10, N 5",0.8674
same,"dose-response, response per biological replicate","[1]; the 14th table, VOC concentration 20",1.202 and 0.8226 and 0.9992 and 0.8736 and 1.052
same,"dose-response, AVERAGE response","[1]; the 14th table, VOC concentration 20, N 5",0.99
same,"dose-response, response per biological replicate","[1]; the 14th table, VOC concentration 40",1.114 and 0.9003 and 0.922 and 0.9538 and 0.9871
same,"dose-response, AVERAGE response","[1]; the 14th table, VOC concentration 40, N 5",0.9754
same,"dose-response, response per biological replicate","[1]; the 14th table, VOC concentration 60",1.02 and 0.8294 and 1.116 and 0.8263 and 0.955
same,"dose-response, AVERAGE response","[1]; the 14th table, VOC concentration 60, N 5",0.9493
same,"dose-response, response per biological replicate","[1]; the 14th table, VOC concentration 80",0.8413 and 0.8664 and 0.788 and 0.8411
same,"dose-response, AVERAGE response","[1]; the 14th table, VOC concentration 80, N 4",0.8342
same,"dose-response, response per biological replicate","[1]; the 14th table, VOC concentration 100",0.8402 and 0.9595 and 0.7641 and 0.7857
same,"dose-response, AVERAGE response","[1]; the 14th table, VOC concentration 100, N 4",0.8374
same,AVERAGE MAX,"[1]; the 14th table, average of replicate fits, N 5",0.9609
same,"MAX, fitted average curve","[1]; the 14th table, fit to the average curve, n 0.854956",1
same,"MAX, fitted parameter per biological replicate","[1]; the 14th table, individual replicate fits",1 (2×) and 0.9126 and 0.907 and 0.9849
same,activation at 1 µM,[2],4%
same,activation at 10 µM,[2],0.671%
same,activation at 100 µM,[2],4.32%
same,OR13a response (VUAA1-normalized) at 1 μM,[2],0.00
same,OR13a response (VUAA1-normalized) at 10 μM,[2],0.00
same,OR13a response (VUAA1-normalized) at 100 μM,[2],0.00
same,DF norm AVERAGE OR13a,[2]; [3],0
same,DF norm AVERAGE OR13a,[2]; [4],0
same,DF norm AVERAGE OR13a,[2]; [5],0
CCCOC(C)=O [propyl acetate],activation at 1 µM,[1],0%
same,activation at 10 µM,[1],9%
same,activation at 100 µM,[1],33%
same,OR47a response (VUAA1-normalized) at 1 μM,[1],0.00
same,OR47a response (VUAA1-normalized) at 10 μM,[1],0.09
same,OR47a response (VUAA1-normalized) at 100 μM,[1],0.33
same,Average response,[1]; odorant cc. 1 µM,0.00
same,Average response,[1]; odorant cc. 10 µM,0.09
same,Average response,[1]; odorant cc. 100 µM,0.33
same,DF norm AVERAGE OR47a,[1]; [3],0
same,DF norm AVERAGE OR47a,[1]; [4],0.0896
same,DF norm AVERAGE OR47a,[1]; [5],0.3345
same,activation at 1 µM,[2],0%
same,activation at 10 µM,[2],0%
same,activation at 100 µM,[2],0%
same,OR13a response (VUAA1-normalized) at 1 μM,[2],0.00
same,OR13a response (VUAA1-normalized) at 10 μM,[2],0.00
same,OR13a response (VUAA1-normalized) at 100 μM,[2],0.00
same,DF norm AVERAGE OR13a,[2]; [3],0
same,DF norm AVERAGE OR13a,[2]; [4],0
same,DF norm AVERAGE OR13a,[2]; [5],0
